Assays:
[1] = method code SF-AS, from DOI: 10.1021/bi00730a008, PMID: 4688860
[2] = not given; remark: listed apart in the source
[3] = not given; remark: listed apart in the source
[4] = not given; remark: listed apart in the source
[5] = not given; remark: listed apart in the source
[6] = method code SF-AS, from DOI: 10.1080/00021369.1974.10861343; settings: for logD: pH 3.0
[7] = not given; remark: listed apart in the source
[8] = method code SF-AS, from DOI: 10.1093/chemse/13.4.619; settings: pH 7.2
[9] = method code SF-AS, from M. Kuchar, J. Tomkova, V. Rejholec, & O. Roubinek. (1992). Some problems of the chromatographic evaluation of lipophicity. In Kuchar, M. (Ed.) QSAR in Design of Bioactive Compounds (pp. 65-81). Prous …; settings: pH 3.4
[10] = method code SF-AS, from DOI: 10.1002/ps.2780370107; settings: pH 0.0
[11] = method code SF-AS, from DOI: 10.1021/jf60177a051
[12] = method code SF-AS, from PMID: 8197227; settings: pH 7.4
[13] = not given; remark: listed apart in the source
[14] = method code SF-HPLC, from DOI: 10.1002/jps.2600831027, PMID: 7884677; settings: pH 2.0
[15] = not given; remark: listed apart in the source
[16] = from Pratesi, P.; Villa, L.; Ferri, V.; DeMicheli, C.; Grana, E.; Grieco, C.; Silipo, C.; Vittoria, A. (1979). On the additive-constitutive properties of substituent hydrophobic parameters in a set of …
[17] = method code SF-C, from DOI: 10.1038/194178b0
[18] = method code SF-AS, from DOI: 10.1021/je700381u; settings: pH 0.0
[19] = not given; remark: listed apart in the source
[20] = method code SF-AS, from DOI: 10.1021/jm00234a001, PMID: 1003419
[21] = method code SF-AS, from DOI: 10.1111/j.1476-5381.1975.tb07619.x, PMID: 1182339; settings: pH 10.0
[22] = not given; remark: listed apart in the source
[23] = not given; remark: listed apart in the source
[24] = method code SF-AS, from DOI: 10.1016/0378-5173(90)90042-3

## NC(=O)Cc1ccc2cccccc1-2
other
  logP: 2.48

## CCOC(=O)c1ccc2cccccc1-2
other
  logP: 3.83

## O=CNc1ccc([N+](=O)[O-])cc1
[1]
  logP: 1.43

## O=C(O)c1ccc2cccccc1-2
pH 3.4
  logD: 2.88

## Nc1ccc(F)c(Cl)c1
[2]
  logP: 1.95

## Clc1cccc2c1CCNCC2
[3]
  logP: 2.4

## O=C(O)COC(=O)Oc1ccccc1
[4]
  logP: 1.72

## CNc1ccccc1
[5]
  logP: 1.69

## CCCOC(=O)C=COc1ccccc1
[6]
  logP: 3.72

## Nc1ccccc1[N+](=O)[O-]
[7]
  logP: 1.62

## c1ccc2ccccc2c1
[2]
  logP: 3.43

## CCOP(=O)(OCC)O/C(=C/Cl)c1ccc(Cl)cc1Cl
[2]
  logP: 3.84

## c1ccc(Cc2ccncc2)cc1
[8]
  logD: 2.62

## CC(C)Cc1ccc(CC(=O)O)cc1
[9]
  logD: 3.35

## CCOP(=O)(O)Cc1ccc(F)cc1
[10]
  logD: 1.25

## CC1=C(C(=O)Nc2ccccc2)SCCO1
[11]
  logP: 1.73

## Cc1cc(C)cc(O)c1
[2]
  logP: 2.54

## Cc1csc(NNC(=O)c2ccc3c(c2)OCO3)n1
[12]
  logD: 1.41

## CCCN1CCc2cccc(Cl)c2CC1
[3]
  logP: 3.5

## COc1cccc(O)c1
[7]
  logP: 1.52

## O=C(O)c1cccc(Oc2ccccc2)c1
[13]
  logP: 3.6

## COCc1ccc(C(=O)O)cc1
[14]
  logD: 1.76

## CC(=O)OC(c1ccc(Cl)c(Cl)c1)C(Cl)(Cl)Cl (stereo not drawn)
[15]
  logP: 4.92

## COc1ccc(C(O)C(=O)O)cc1 (stereo not drawn)
[9]
  logD: 0.63

## CC1=C(C(=O)Nc2ccccc2-c2ccccc2)SCCO1
[11]
  logP: 2.54

## O=C(O)CCCCCCCCCCCOC(=O)Oc1ccccc1
[4]
  logP: 4.26

## O=S(=O)(O)c1ccc2ccccc2c1
[16]
  logP: 1.07

## O=C(O)COc1cccc(C(F)(F)F)c1
[17]
  logP: 2.52

## O=C(O)c1ccc(F)c(Br)c1
[18]
  logD: 3.56

## COCCN1CCc2cccc(Cl)c2CC1
[3]
  logP: 3

## OCc1ccncc1
[5]
  logP: -0.04

## c1ccc2c(c1)cc1ccc3cccc4ccc2c1c34
[19]
  logP: 6.57

## COc1ccc(NC=O)cc1
[1]
  logP: 1.03

## O=C(O)c1cccc(F)c1Cl
[18]
  logD: 1.74

## O=[N+]([O-])c1ccc2cccccc1-2
other
  logP: 2.59

## OC[C@H]1O[C@@H](Oc2ccc(I)c(O[C@@H]3O[C@H](CO)[C@@H](O)[C@H](O)[C@H]3O)c2I)[C@H](O)[C@@H](O)[C@@H]1O
[20]
  logP: -1.31

## COCc1ccc(COC(=O)C2C(C=C(C)C)C2(C)C)cc1 (stereo not drawn)
[15]
  logP: 4.5

## COc1ccc(NC(=O)NC(=N)N)cc1
[21]
  logD: 0.56

## O=[N+]([O-])c1ccc(Cc2ccncc2)cc1
[8]
  logD: 2.73

## O=C1OCc2c(Cl)c(Cl)c(Cl)c(Cl)c21
[22]
  logP: 3.22

## C#CCc1ccc(COC(=O)C2C(C=C(C)C)C2(C)C)o1 (stereo not drawn)
[15]
  logP: 6.67

## N=C(N)NC(=O)Nc1cccc([N+](=O)[O-])c1
[21]
  logD: 1.28

## Cc1ccc(CCN)cc1
[23]
  logP: 1.83

## O=C(O)c1ccc(CO)cc1
[14]
  logD: 0.92

## O=C(O)/C=C/Oc1ccccc1Cl
[6]
  logD: 2.69

## N#Cc1cccc(OCC(=O)O)c1
[17]
  logP: 1.2

## NCCCCc1ccccc1
[23]
  logP: 2.25

## O=C(O)/C=C/Oc1ccccc1
[6]
  logD: 2.27

## N#CCCOc1ccccc1
[16]
  logP: 1.61

## CC(C)CCOC(=O)c1cc(=O)[nH]c(=O)[nH]1
[24]
  logP: 1.48

## CCCCCCOc1ccc(CC(=O)O)cc1
[9]
  logD: 3.96

## CC(=O)Nc1ccccc1Cl
[5]
  logP: 1.35

## O=C(O)c1cc(F)ccc1Cl
[18]
  logD: 2.39
